Reference: publication PMC11137182, “Selective and brain-penetrant ACSS2 inhibitors target breast cancer brain metastatic cells” (Frontiers in Pharmacology, 2024)

Assays:
ACSS2 = molecular target: T1, ACSS2 (Homo sapiens, UniProt Q9NR19); experiment: Fluorescence polarization-based ACSS2 biochemical assay (ATP to AMP conversion); conditions: 100 nM ACSS2, triplicate, ± SD; read-out: IC50, inhibition of ATP to AMP conversion of ACSS2
T1 construct: His-tag (N); His-tag (C); made in house; host or cells: E. coli BL21 (DE3) RIL
T1 sequence (Q9NR19 whole entry): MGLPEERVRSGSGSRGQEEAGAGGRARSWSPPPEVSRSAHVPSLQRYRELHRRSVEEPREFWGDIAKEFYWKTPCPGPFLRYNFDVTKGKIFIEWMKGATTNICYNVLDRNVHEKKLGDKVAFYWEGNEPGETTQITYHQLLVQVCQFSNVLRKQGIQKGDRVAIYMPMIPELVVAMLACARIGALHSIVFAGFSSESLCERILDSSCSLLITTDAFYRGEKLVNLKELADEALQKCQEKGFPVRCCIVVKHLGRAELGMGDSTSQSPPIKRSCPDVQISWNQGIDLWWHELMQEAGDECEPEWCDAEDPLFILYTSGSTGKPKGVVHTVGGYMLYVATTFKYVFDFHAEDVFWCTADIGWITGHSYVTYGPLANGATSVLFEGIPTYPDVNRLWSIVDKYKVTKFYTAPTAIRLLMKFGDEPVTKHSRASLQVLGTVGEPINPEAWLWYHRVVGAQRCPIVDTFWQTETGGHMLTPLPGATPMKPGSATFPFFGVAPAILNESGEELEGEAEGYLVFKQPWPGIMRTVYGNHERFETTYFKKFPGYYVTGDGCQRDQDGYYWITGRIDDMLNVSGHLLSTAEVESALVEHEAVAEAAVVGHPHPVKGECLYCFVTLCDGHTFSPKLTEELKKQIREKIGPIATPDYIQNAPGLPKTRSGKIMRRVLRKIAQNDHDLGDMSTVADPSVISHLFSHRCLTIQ
Description: ACSS2 enzyme activity was measured using the TranScreener AMP^2/GMP^2 Assay Kit—FP Readout assay (BellBrook Labs). The assay was performed in white, opaque, 96-well plates. […] ACSS2 was used in assay buffer (30 mM HEPES, pH 7.4, 140 mM NaCl, 2 mM MgCl2, 5 mM sodium acetate, 2 mM DTT, 0.05% CHAPS). Substrate mix was added, followed by a 60-min incubation. Final substrate concentrations were 5 mM acetate, 50 μM ATP, and 5 μM CoA. After incubation, conjugated AMP antibody and AMP tracer were added according to the methods described by BellBrook Labs. After 30 min, the FP signal was measured using a Tecan Spark multimode microplate reader. In the analysis, data were normalized to represent the percentage inhibition of ATPase activity.

4T1BR cells = experiment: Acetyl-CoA quantification by LC-HRMS; format: cell-based; conditions: 100 μM, 48 hours
Description: (§1) Cells were grown to ∼80% confluency in a 10-cm dish in normal growth medium, 48 h prior to collecting cells, aspirate media and replace with fresh growth media and drug was added at 100 μM. To collect cells, media was aspirated and 1 mL of 10% trichloroacetic acid (w/v) in water was added directly to the cells. Cells were scraped and transferred into a 1.7 mL Eppendorf tube and stored at −80 until labeling. […] Lysates were centrifuged 17,000 g for 10 min at 4°C and supernatant was transferred to a deep-well 96-well plate for loading in a Tomtec Quadra4 liquid handling workstation. On the liquid handling workstation, lysates were applied to an Oasis HLB 96-well elution plate (30 mg of sorbent per well) pre-conditioned and equilibrated with 1 mL of methanol and 1 mL of water, respectively. After de-salting with 1 mL of water, analytes were eluted into a deep-well 96-well plate using 1 mL of 25 mM ammonium acetate in methanol. Eluent was evaporated dried under nitrogen gas. The dried LC-HRMS samples were resuspended in 50 µL of 5% (w/v) sulfosalicylic acid in water. […] A modified gradient using solvent A (5 mM ammonium acetate in water), solvent B (5 mM ammonium acetate in 95:5 (v:v) acetonitrile: water) and solvent C (0.1% (v/v) formic acid in 80:20 (v:v) acetonitrile: water). Data was acquired using XCalibur 4.0 (Thermo Scientific) and analyzed using Tracefinder 5.1 (Thermo Scientific).

MDA-MB-231BR cells = experiment: Acetyl-CoA quantification by LC-HRMS; format: cell-based; conditions: 100 μM, 48 h
Description: as §1

[1] = system: brain slices not containing tumors; experiment: MTS cell viability of brain slices without tumor; design: species or system mice; conditions: 100 μM, day 6, MTS assay
Description: (§2) Ex vivo brain slice tumor model was performed as previously described ([Ciraku et al., 2021]). Briefly, Nu/Nu athymic 4–6 week old mice Charles River Laboratories (Wilmington, MA, United States) were immobilized using the Just for Mice Stereotaxic Frame (Harvard Apparatus, Holliston, MA, United States) and injected intracranially with 5uL of 20,000 cells/uL solution of luciferase tagged MDA-MB-231BR or 4T1BR cells. Tumor growth was monitored via bioluminescence imaging on the IVIS system (Perkin Elmer, Waltman, MA, United States). Organotypic hippocampal cultures were prepared as described previously ([Ciraku et al., 2021]). Briefly, adult mice (4–6 weeks) or mice after 12 days following intracranial injection were decapitated and their brains rapidly removed into ice-cold (4°C) sucrose-aCSF composed of the following (in mM): 280 sucrose, 5 KCl, 2 MgCl2, 1 CaCl2, 20 glucose, 10 HEPES, 5 Na^+-ascorbate, 3 thiourea, 2 Na^+-pyruvate; pH = 7.3. […] Tumor growth was monitored via bioluminescence imaging on the IVIS 200 system (Perkin Elmer), and results were analyzed using Living Image software (Caliper Life Sciences, Waltham, MA, United StatesUnited States). […] Tissues were incubated at 37 ℃ , 5% CO2 for 4 h, and absorbance at 490 nm was measured with a Tecan Spark Microplate reader.

[2] = system: MDA-MB-231BR tumor bearing brain slices; experiment: Ex vivo tumor-brain slice model with irradiation; design: species or system nu/nu mice; conditions: 6 days
Description: as §2

N[C@H](C(=O)N1CCCC(c2ccccc2)(c2ccccc2)C1)C1CC1 [AD-8007]
IC50 (ACSS2): 890 ± 290 nM | acetyl-CoA levels (4T1BR cells): significantly reduced acetyl-CoA levels | acetyl-CoA levels (MDA-MB-231BR cells): significantly reduced acetyl-CoA levels | cell viability of brain slices without tumor [1]: did not alter cell viability | preformed BCBM tumors ex vivo, combination with radiation ([2]; 20 μM plus one dose of 6 Gy): significantly reduced preformed BCBM tumors | BCBM cell growth ex vivo, drug alone ([2]; suboptimal dose 20 µM, no irradiation): little effect on BCBM cell growth
